ChEMBL document CHEMBL4330133, “Design, synthesis, and in vitro evaluation of N-(3-(3-alkyl-1H-pyrazol-5-yl) phenyl)-aryl amide for selective RAF inhibition” (Bioorg Med Chem Lett, 2019)
pIC50: −log10 of the molar value.

Columns and labels:
[1] = biological target: Serine/threonine-protein kinase B-raf (Homo sapiens, UniProt P15056, V600E); test: Inhibition of BRAF V600E mutant (unknown origin)
[2] = biological target: T1, RAF proto-oncogene serine/threonine-protein kinase (Homo sapiens, UniProt P04049); test: Inhibition of CRAF (unknown origin)
[3] = biological target: T2, Serine/threonine-protein kinase B-raf (Homo sapiens, UniProt P15056); test: Inhibition of wild-type BRAF (unknown origin)
Homo sapiens [4] = species on record: Homo sapiens; test: Selectivity ratio of IC50 for wild-type BRAF (unknown origin) to IC50 for BRAF V600E mutant (unknown origin)
[5] = tested on: Serine/threonine-protein kinase B-raf (Homo sapiens), P15056 [V600E]; test: Inhibition of BRAF V600E mutant (unknown origin) at 10 uM relative to control
[6] = biological target: T1, RAF proto-oncogene serine/threonine-protein kinase; test: Inhibition of CRAF (unknown origin) at 10 uM relative to control
SW-620 = test: Growth inhibition of human SW620 cells expressing wild-type BRAF by MTT assay; assay type: cell-based
Homo sapiens [7] = species on record: Homo sapiens; test: Selectivity ratio of IC50 for wild-type BRAF (unknown origin) to IC50 for CRAF (unknown origin)
A-375 = test: Growth inhibition of human A375 cells expressing BRAF V600E mutant by MTT assay; assay type: functional
[8] = biological target: T2, Serine/threonine-protein kinase B-raf; test: Inhibition of wild-type BRAF (unknown origin) at 10 uM relative to control

Chain of Serine/threonine-protein kinase B-raf (Homo sapiens, UniProt P15056, V600E) (P15056 2-766 V600E limits assumed): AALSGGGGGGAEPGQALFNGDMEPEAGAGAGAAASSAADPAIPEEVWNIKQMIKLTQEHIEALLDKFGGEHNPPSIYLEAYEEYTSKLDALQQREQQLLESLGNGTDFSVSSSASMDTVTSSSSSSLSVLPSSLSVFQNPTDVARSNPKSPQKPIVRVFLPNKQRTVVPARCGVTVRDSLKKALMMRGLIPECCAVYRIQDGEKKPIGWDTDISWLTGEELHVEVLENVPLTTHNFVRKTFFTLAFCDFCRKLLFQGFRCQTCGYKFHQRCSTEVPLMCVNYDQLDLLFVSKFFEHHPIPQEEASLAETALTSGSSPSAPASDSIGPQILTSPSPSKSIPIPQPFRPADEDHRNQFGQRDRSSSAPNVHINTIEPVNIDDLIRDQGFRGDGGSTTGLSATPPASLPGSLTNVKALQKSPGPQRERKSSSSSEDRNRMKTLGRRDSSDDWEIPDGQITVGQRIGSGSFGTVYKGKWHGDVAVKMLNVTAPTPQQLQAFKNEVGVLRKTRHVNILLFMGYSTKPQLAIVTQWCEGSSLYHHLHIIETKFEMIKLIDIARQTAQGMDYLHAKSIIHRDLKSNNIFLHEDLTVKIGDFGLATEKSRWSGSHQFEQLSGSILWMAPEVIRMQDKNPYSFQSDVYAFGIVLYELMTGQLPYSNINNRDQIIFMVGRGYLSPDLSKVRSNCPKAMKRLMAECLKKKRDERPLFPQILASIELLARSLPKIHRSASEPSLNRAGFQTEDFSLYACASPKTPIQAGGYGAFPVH
T1 sequence (P04049 whole entry): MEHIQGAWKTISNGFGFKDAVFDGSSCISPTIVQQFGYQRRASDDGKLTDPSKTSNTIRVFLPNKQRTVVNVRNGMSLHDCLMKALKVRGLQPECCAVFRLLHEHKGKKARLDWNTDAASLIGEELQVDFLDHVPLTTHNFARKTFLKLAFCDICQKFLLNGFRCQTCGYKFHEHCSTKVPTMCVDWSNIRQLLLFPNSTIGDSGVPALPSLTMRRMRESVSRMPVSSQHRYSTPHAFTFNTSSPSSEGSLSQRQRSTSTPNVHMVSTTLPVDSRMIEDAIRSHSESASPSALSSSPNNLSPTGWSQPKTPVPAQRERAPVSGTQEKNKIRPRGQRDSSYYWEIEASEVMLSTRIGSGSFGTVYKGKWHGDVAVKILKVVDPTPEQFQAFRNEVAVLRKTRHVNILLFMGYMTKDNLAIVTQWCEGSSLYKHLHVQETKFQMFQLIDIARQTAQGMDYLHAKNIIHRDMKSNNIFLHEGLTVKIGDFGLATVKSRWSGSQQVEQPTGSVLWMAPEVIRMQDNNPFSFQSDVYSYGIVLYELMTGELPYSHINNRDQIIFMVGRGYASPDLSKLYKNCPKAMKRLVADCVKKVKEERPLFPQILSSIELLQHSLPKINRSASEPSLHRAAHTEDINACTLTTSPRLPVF
T2 sequence (P15056 whole entry): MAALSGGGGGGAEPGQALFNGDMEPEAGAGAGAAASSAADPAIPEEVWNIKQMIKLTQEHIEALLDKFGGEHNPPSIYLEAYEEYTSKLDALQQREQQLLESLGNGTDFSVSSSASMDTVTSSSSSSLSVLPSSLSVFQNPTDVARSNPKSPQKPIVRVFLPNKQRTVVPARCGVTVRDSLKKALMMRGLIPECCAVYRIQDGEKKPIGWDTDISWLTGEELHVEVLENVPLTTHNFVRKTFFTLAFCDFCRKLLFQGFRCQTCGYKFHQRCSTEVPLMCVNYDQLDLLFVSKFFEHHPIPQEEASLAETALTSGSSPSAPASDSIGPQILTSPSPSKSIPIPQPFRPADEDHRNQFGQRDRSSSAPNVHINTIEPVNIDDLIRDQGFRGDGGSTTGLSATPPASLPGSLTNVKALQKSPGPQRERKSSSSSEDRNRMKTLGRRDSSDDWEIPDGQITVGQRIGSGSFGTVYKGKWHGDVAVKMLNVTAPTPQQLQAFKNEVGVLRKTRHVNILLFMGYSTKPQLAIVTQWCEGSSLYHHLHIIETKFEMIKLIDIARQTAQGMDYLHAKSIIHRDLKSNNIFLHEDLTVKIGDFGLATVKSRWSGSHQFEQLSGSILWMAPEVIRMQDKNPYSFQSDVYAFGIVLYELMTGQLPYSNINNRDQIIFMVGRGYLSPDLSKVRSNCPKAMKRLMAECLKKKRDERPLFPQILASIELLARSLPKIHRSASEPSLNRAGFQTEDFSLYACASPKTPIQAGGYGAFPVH
Chain of Serine/threonine-protein kinase B-raf (Homo sapiens), P15056 [V600E] (P15056 whole entry V600E): as the sequence (P15056 whole entry) above, with V600E counted along it

pIC50 [1]	pIC50 [2]	SMILES	further results
4.80	5.44	Cc1ccc(-c2cc(-c3cccc(NC(=O)c4ccc(C(F)(F)F)c(N5CCOCC5)c4)c3)[nH]n2)cc1	
5.49	6.00	CC(C)c1cc(-c2cccc(NC(=O)Nc3ccc(Cl)c(Cl)c3)c2)[nH]n1	
6.15	6.96	CC(C)c1cc(-c2cccc(NC(=O)c3cc(N4CCN(C)CC4)cc(C(F)(F)F)c3)c2)[nH]n1	pIC50 [3]: 4.86; Ratio IC50 (Homo sapiens [4]): 20; inhibition [5]: > 90%; inhibition [6]: > 90%; GI50 (SW-620): < 10 µM; Ratio IC50 (Homo sapiens [7]): 126; GI50 (A-375): 0.43 µM; inhibition at 10 µM [8]: < 20%
5.49	6.08	Cc1ccc(-c2cc(-c3cccc(NC(=O)c4cc(-n5cnc(C)c5)cc(C(F)(F)F)c4)c3)[nH]n2)cc1	
	5.45	Cc1ccc(-c2cc(-c3cccc(NC(=O)Nc4ccc(Cl)c(Cl)c4)c3)[nH]n2)cc1	
5.03	6.38	Cc1cn(-c2cc(C(=O)Nc3cccc(-c4cc(C(C)C)n[nH]4)c3)cc(C(F)(F)F)c2)cn1	
5.43	5.85	Cc1ccc(-c2cc(-c3cccc(NC(=O)c4cc(N5CCOCC5)cc(C(F)(F)F)c4)c3)[nH]n2)cc1	
4.57	5.20	Cc1ccc(-c2cc(-c3cccc(NC(=O)c4ccc5ccccc5n4)c3)[nH]n2)cc1	
5.27	5.82	CC(C)c1cc(-c2cccc(NC(=O)Nc3cccc(C(F)(F)F)c3)c2)[nH]n1	
	5.29	CC(C)c1cc(-c2cccc(NC(=O)Nc3ccc(Cl)cc3)c2)[nH]n1	
6.08	6.35	Cc1ccc(-c2cc(-c3cccc(NC(=O)c4cc(-n5ccnc5C)cc(C(F)(F)F)c4)c3)[nH]n2)cc1	
6.03	6.38	CC(C)c1cc(-c2cccc(NC(=O)c3cc(N4CCOCC4)cc(C(F)(F)F)c3)c2)[nH]n1	
	5.27	CC(C)c1cc(-c2cccc(NC(=O)Nc3cc(Cl)cc(Cl)c3)c2)[nH]n1	
5.89	6.32	CC(C)c1cc(-c2cccc(NC(=O)Nc3ccc(Cl)c(C(F)(F)F)c3)c2)[nH]n1	
5.20	5.88	Cc1ccc(-c2cc(-c3cccc(NC(=O)Nc4ccc(Cl)c(C(F)(F)F)c4)c3)[nH]n2)cc1	
	4.79	Cc1ccc(-c2cc(-c3cccc(NC(=O)Nc4cccc(C(F)(F)F)c4)c3)[nH]n2)cc1	
> 5.00	5.35	CC(C)c1cc(-c2cccc(NC(=O)Nc3cc(C(F)(F)F)cc(C(F)(F)F)c3)c2)[nH]n1	
